Source: patent publication US5877165A, “Boronated porhyrins and methods for their use” (priority 1997, dated 1999)
Entries after “also recorded” stand apart in the source; their conditions may differ.

What was measured:
[1] = Hematological, enzymatic and chemical blood analyses and weight change, mice with KHJJ mammary carcinomas (Examples 4-7, Table 1); format: in vivo, BALB/c mice; conditions: NiTCP 160 or BPA 900 μg/gbw; 6-78 hr
Procedure: Female BALB/c mice (Taconic Farms, Germantown, N.Y.) (20-25 g) were implanted with either KHJJ or EMT-6 tumors. For KHJJ tumors, 1-3 mm^3 tumor fragments were implanted subcutaneously (s.c.) in the dorsal thorax of each mouse using an 18-gauge trocar. For EMT-6 tumors, 2.5×10^5 cells were implanted similarly using a 27-gauge needle. EMT-6 tumor cells were grown alternately in vivo and in vitro. Single-cell suspensions were prepared from mouse-grown tumors by trypsinization. These were grown in cell culture for several passages and then were frozen in 10% DMSO and stored in liquid nitrogen. Prior to implantation in mice, the cells were thawed and grown in tissue culture in Alpha-MEM with 10% FBS for several passages. […]
Levels of glucose [GLU], blood urea nitrogen [BUN], blood creatinine [BCR], alanine transaminase [ALT], aspartate transaminase [AST], alkaline phosphatase [ALP], total protein [TPR], albumin [ALB], and creatine phosphokinase [CPK] were determined in blood plasma using a Cobas Fara II microanalysis system. Blood platelets [PLT] and white blood cells [WBC] were counted using a Serono-Baker System 9000 automated hematology microanalyzer. […]

KHJJ mammary carcinomas = assay: Boron biodistribution, mice with KHJJ mammary carcinomas (Examples 8-12, Table 2); parameters: species or system BALB/c mice; conditions: mouse, in vivo
Procedure: Female BALB/c mice (Taconic Farms, Germantown, N.Y.) (20-25 g) were implanted with either KHJJ or EMT-6 tumors. For KHJJ tumors, 1-3 mm^3 tumor fragments were implanted subcutaneously (s.c.) in the dorsal thorax of each mouse using an 18-gauge trocar. For EMT-6 tumors, 2.5×10^5 cells were implanted similarly using a 27-gauge needle. EMT-6 tumor cells were grown alternately in vivo and in vitro. Single-cell suspensions were prepared from mouse-grown tumors by trypsinization. These were grown in cell culture for several passages and then were frozen in 10% DMSO and stored in liquid nitrogen. Prior to implantation in mice, the cells were thawed and grown in tissue culture in Alpha-MEM with 10% FBS for several passages.
Under deep halothane anesthesia leading to euthanasia, right ventricular blood was collected in Microtainer (Becton-Dickinson, Rutherford, N.J.) tubes containing EDTA for hematological analyses and boron assays of whole blood and in Microtainer™ tubes containing lithium heparin for chemical analyses and enzyme assays of blood plasma. Tumor, brain, fat, muscle, and liver tissues were sampled at necropsy for boron analyses.
Direct current plasma-atomic emission spectroscopy [DCP-AES] (ARL/Fisons Model SS-7) was used (detection limit: 0.1 μg/ml). Samples (50-130 mg) were digested at 60° C. with sulfuric acid:nitric acid (1:1). […]

Nickel Tetracarboranylphenylporphyrin [NiTCP]
toxicity, in words [1]: some minor, evidently transient, weight loss was noted six hours after the last NiTCP injection; also recorded: The BUN levels in mice given NiTCP at all three time points were higher than those in mice given BPA; also recorded: The ALP and ALT were somewhat depressed 78 hours after injections
retention of boron in tumor, in words (KHJJ mammary carcinomas): the ability to retain the therapeutic amounts of boron in the tumor for several days
time before average blood boron concentration falls below 1 ppm (KHJJ mammary carcinomas): 4 days
